Patent publication EP4652843A1, “BIOPESTICIDE COMPOSITION, PROCEDURE OF OBTAIN THEREOF, AND METHOD FOR CONTROLLING AND TREATING BROAD SPECTRUM OF PESTS IN PLANTS” (Kimitec Biogroup S.L, priority 2024, dated 2025)
“And” between values parts separate entries of the source, which are not always exact repeats. Identical values can stand only once. Marks after values point to notes of the source that are not given here.

Legend:
Cydia pomonella = assay: Field trial against Cydia pomonella in Pyrus communis and Malus domestica; type: in vivo; conditions: 0,2cc/L, one value per plot (1-3)
Description: (§1) The biopesticide composition (table 2) was tested in field trials against Grapholita molesta in Prunus persica […] to validate efficacy, parametrised by % efficacy (abbott) on fruit damage incidence. 3 plots were treated, each plot has 4-6 trees with a sample size of 100-300 fruits/ plot. The trees were treated with biopesticide composition and positive control; commercial products based on chlorantraniliprole for recommend doses in the label in 2 applications at interval of 10 days. Table 9. % Efficacy against Grapholita molesta in field trials.
The same test was repeated in Pyrus communis and Malus domestica to validate efficacy against Cydia pomonella. Table 10. % Efficacy against Cydia pomonella in field trials

Grapholita molesta = assay: Field trial against Grapholita molesta in Prunus persica; type: in vivo; conditions: 0,2cc/L, % efficacy (abbott) on fruit damage incidence, one value per plot (1-3)
Description: as §1

Myzus persicae = assay: Contact mortality (Leaf Disc Method), solvent comparison, Myzus persicae; conditions: Group A: individual solvents, diluted at 0.3% (3cc/L) in water without formulation, Abbott's corrected
Description: (§2) The objective of this bioassay is to evaluate the effect of test items on the mortality of insect (Fam Tortricidae and Fam Gelechiidae) and other side pests as target in a short/medium-term (0-24 hours) by topical application. All trials were carried out on whole alive target. Four independent replicates of the whole setup were performed for each target as follow: (Figure 12) first of all, 10g/L agar-agar was prepared (1) and deposited in petri dish according to the target (2), after adding cut leaf disc around 4 cm diameter from healthy bean plants (3), fixing the plant material on the semi solid agar in the petri dish (4). Insect adults (from 3 to 15 according to the target) are setting on surface of leaf disc (5). Biopesticide composition was sprayed 0.1-02 ml per experimental unit (6), a total of 10 replicates for each treatment (biopesticide composition and positive control; commercial products based on anthranilic diamide and emamectin to recommend doses in the label) were used in each experiment and incubated and evaluated after 24 hours (7).
(§3) Insects and mites were considered dead if no movement was apparent after probing with the tip of a fine brush under stereoscopic magnifying glass. Mortality percentage was calculated in treatment and control groups. If the mortality in negative control is above 20% the test was discarded.
(§4) Means of %M were compared using a one-way analysis of variance (ANOVA, p<0.05) and LSD-test as a post hoc test to verify significant differences between single treatments using Statgraphics Centurion XVII software. When nonnormality in the data was detected, an additional Kruskal-Wallis test was conducted, and Box-and-Whisker Plot (Median Notch) was presented.
(§5) The different compositions were tested by trials that were carried out on different relevant insect pests and acari including: Tuta absoluta, Bemisia tabaci, Myzus persicae, Frankliniella occidentalis and Tetranychus urticae. The bioassay type used was contact mortality (Leaf Disc Method) described in the example 4.
(§6) The main treatments included in the comparison of efficacy are: Group A: Individual solvents: Benzyl alcohol, ethanol, isopropanol, and water were applied directly (purity as in the label) diluted at 0.3% (3cc/L) in water without formulation. Group B: Vegetable matrix extracts were extracted with different solvents such as benzyl alcohol, ethanol, isopropanol, and water in a blend of inert ingredients as follows: […]

Tuta absoluta [1] = assay: Contact mortality (Leaf Disc Method), solvent comparison, Tuta absoluta; conditions: Group A: individual solvents, diluted at 0.3% (3cc/L) in water without formulation, Abbott's corrected
Description: as §2, §3, §4, §5, §6

Bemisia tabaci = assay: Contact mortality (Leaf Disc Method), solvent comparison, Bemisia tabaci; conditions: Group A: individual solvents, diluted at 0.3% (3cc/L) in water without formulation, Abbott's corrected
Description: as §2, §3, §4, §5, §6

[2] = system: Frankliniella occidentalis; assay: Contact mortality (Leaf Disc Method), solvent comparison, Frankliniella occidentalis; conditions: Group A: individual solvents, diluted at 0.3% (3cc/L) in water without formulation, Abbott's corrected
Description: as §2, §3, §4, §5, §6

Tetranychus urticae = assay: Contact mortality (Leaf Disc Method), solvent comparison, Tetranychus urticae; conditions: Group A: individual solvents, diluted at 0.3% (3cc/L) in water without formulation, Abbott's corrected
Description: as §2, §3, §4, §5, §6

[3] = cited from earlier work
Tuta absoluta [4] = assay: Field trial against Tuta absoluta in Solanum lycopersicum; type: in vivo; conditions: 1,5 gr/L, % efficacy (Henderson & Tilton) on damaged leaflets, one value per plot (1-3)
Description: The biopesticide composition was tested in field trials against Tuta absoluta in Solanum lycopersicum to validate efficacy, parametrised by % efficacy (Henderson & Tilton) on damaged leaflets (50 random leaflets/Plot). 3 plots were treated, each plot has 10m^2. The plants were treated with biopesticide composition and positive control; commercial products based on emamectin for recommend doses in the label in 3 applications at interval of 7 days. Table 11. % Efficacy against Tuta absoluta in field trials

[5] = system: lepidoptera adults (Grapholita molesta); assay: Contact mortality (Leaf Disc Method), Grapholita molesta adults; type: in vivo; conditions: dose 1.5 g/L; 24H after application; Abbott's corrected
Description: (§7) All trials were carried out on whole alive target.
(§8) Mortality percentage was calculated in treatment and control groups.

[6] = system: lepidoptera larvae (Grapholita molesta); assay: Contact mortality (Leaf Disc Method), Grapholita molesta larvae; type: in vivo; conditions: dose 1.5 g/L; 24H after application; Abbott's corrected; mean of 4 repetitions
Description: as §7, §8

[7] = system: lepidoptera larvae (Tuta absoluta); assay: Antifeedant effects: feeding reduction (choice assays), Tuta absoluta larvae; type: in vivo; conditions: dose 0.5 kg/ha, surface covered by mines, 24H after application
[8] = system: lepidoptera larvae (Tuta absoluta); assay: Contact mortality (Leaf Disc Method), Tuta absoluta larvae; type: in vivo; conditions: dose 0.5 kg/ha; 24H after application; Abbott's corrected; mean of 3 repetitions
Description: as §7, §8

[9] = system: lepidoptera larvae (Grapholita molesta); assay: Antifeedant effects: settling inhibition, Grapholita molesta larvae; type: in vivo; conditions: dose 1.5 g/L; 24H after application
Description: The concept of antifeedant as a substance that acts on insect behaviour involves feeding reduction (FR) and settling inhibition (SI). In some cases, settling inhibition is considered as indirect repellent effect. […] Feeding reduction index (%FR) or settling inhibition index (%SI) was calculated according to the following formula: % FR or SI = (1−((T)/(C)))∗100 [formula] where: T= Settling of treated plants; C= Setting of control plants. Table 3. In vitro efficacy against lepidoptera larvae (Grapholita molesta)

[10] = system: lepidoptera adults (Cydia pomonella); assay: Contact mortality (Leaf Disc Method), Cydia pomonella adults; type: in vivo; conditions: dose 1.5 g/L; 24H after application; Abbott's corrected
Description: as §7, §8

Compound: CNC(=O)c1cc(Cl)cc(C)c1NC(=O)c1cc(Br)nn1-c1ncccc1Cl [Chlorantraniliprole]
- % Efficacy against Cydia pomonella in field trials (Cydia pomonella; 10 days after the last application): 59% and 62% and 75%
- % Efficacy against Cydia pomonella in field trials (Cydia pomonella; 20 days after the last application): 68% and 62% and 73%
- % Efficacy against Grapholita molesta in field trials (Grapholita molesta; 14 days after the last application): 58% and 63% and 42%
- % Efficacy against Grapholita molesta in field trials (Grapholita molesta; 21 days after the last application): 62% and 51% and 61%

Compound: CCO [Ethanol (EtOH), Ethanol]
- Contact mortality (%M) Myzus persicae (Myzus persicae): 16.7 ± 9.1 ^a %
- Contact mortality (%M) Tuta absoluta (Tuta absoluta [1]): 0.0 ± 0.0 ^c %
- Contact mortality (%M) Bemisia tabaci (Bemisia tabaci): 23.5 ± 8.4 ^b %
- Contact mortality (%M) Frankliniella occidentalis [2]: 0.0 ± 0.0 ^b %
- Contact mortality (%M) Tetranychus urticae (Tetranychus urticae): 0.0 ± 0.0 ^b %

Compound: OCc1ccccc1 [Benzyl alcohol (BnOH), Benzyl alcohol]
- Contact mortality (%M) Myzus persicae (Myzus persicae): 19.8 ± 6.2 ^a %
- Contact mortality (%M) Tuta absoluta (Tuta absoluta [1]): 29.6 ± 5.7 ^a %
- solubility in water [3]: 4 g/100 mL
- Contact mortality (%M) Bemisia tabaci (Bemisia tabaci): 49.8 ± 6.2 ^a %
- Contact mortality (%M) Frankliniella occidentalis [2]: 12.5 ± 7.8 ^a %
- Contact mortality (%M) Tetranychus urticae (Tetranychus urticae): 33.4 ± 4.1 ^a %

Compound: O [Water]
- Contact mortality (%M) Myzus persicae (Myzus persicae; 1440 min): 0.0 ± 0.0 ^b %
- Contact mortality (%M) Tuta absoluta (Tuta absoluta [1]; 1440 min): 0.0 ± 0.0 ^c %
- Contact mortality (%M) Bemisia tabaci (Bemisia tabaci; 1440 min): 0.0 ± 0.0 ^c %
- Contact mortality (%M) Frankliniella occidentalis ([2]; 1440 min): 0.0 ± 0.0 ^b %
- Contact mortality (%M) Tetranychus urticae (Tetranychus urticae; 1440 min): 0.0 ± 0.0 ^b %

Compound: CC(C)O [Isopropanol (IPN), Isopropanol]
- Contact mortality (%M) Myzus persicae (Myzus persicae): 0.0 ± 0.0 ^b %
- Contact mortality (%M) Tuta absoluta (Tuta absoluta [1]): 11.4 ± 7.2 ^b %
- Contact mortality (%M) Bemisia tabaci (Bemisia tabaci): 0.0 ± 0.0 ^c %
- Contact mortality (%M) Frankliniella occidentalis [2]: 0.0 ± 0.0 ^b %
- Contact mortality (%M) Tetranychus urticae (Tetranychus urticae): 0.0 ± 0.0 ^b %

Compound: Emamectin
- % Efficacy against Tuta absoluta in field trials (Tuta absoluta [4]; 7 days after 1st application): 62% and 43% and 71%
- % Efficacy against Tuta absoluta in field trials (Tuta absoluta [4]; 7 days after 2nd application): 53% and 58%
- % Efficacy against Tuta absoluta in field trials (Tuta absoluta [4]; 7 days after 3rd application): 67% and 61% and 55%
- Contact mortality (%M) [5]: 88.9 ± 2.0 ^(a) %
- Contact mortality (%M) [6]: 100.0 ± 0.0 ^(a) %
- Feeding reduction (%FR) [7]: 59.1 ± 0.8 %
- Contact mortality in-leaf (%M) [8]: 80.3 ± 8.7 ^(a) %
- Contact mortality out-leaf (%M) [8]: 65.3 ± 3.8 ^(ab) %
- Settling inhibition (%SI) [9]: 36.0 ± 5.8%
- Contact mortality (%M) [10]: 94.5 ± 1.9 ^(a) %
